Results: the NIST ThermoML archive (doi:10.1021/acs.jced.7b00452)

Experiment: mn = molality of the nth substance listed, in mol/kg
Conditions: 101.3 kPa, Liquid; for speed of sound: Single path-length method; for mass density: Vibrating tube method

CCN(CC)CCNC(=O)c1ccc(N)cc1.Cl [procainamide hydrochloride] + O
Conditions	mass density, 298.15 K [kg/m3]	mass density, 308.15 K [kg/m3]	mass density, 318.15 K [kg/m3]	speed of sound, 298.15 K [m/s]	speed of sound, 308.15 K [m/s]	speed of sound, 318.15 K [m/s]
m1 = 0.0292	998.359	995.314	991.46	1501.6	1524.2	1538.9
m1 = 0.0328	998.521	995.471	991.615	1502.1	1524.6	1539.2
m1 = 0.043	998.975	995.914	992.05	1503.6	1525.8	1540.3
m1 = 0.0551	999.51	996.435	992.563	1505.4	1527.1	1541.3
m1 = 0.0689	1000.14	997.048	993.168	1507.5	1528.6	1542.7
m1 = 0.076	1000.45	997.346	993.461	1508.5	1529.5	1543.3
m1 = 0.0804	1000.66	997.55	993.641	1509.1	1530	1543.7
m1 = 0.0938	1001.27	998.14	994.212	1511.1	1531.7	1544.9
m1 = 0.1119	1002.05	998.919	994.982	1513.8	1533.8	1546.4
m1 = 0.1194	1002.38	999.225	995.305	1514.9	1534.8	1547.1
m1 = 0.1306	1002.87	999.706	995.779	1516.6	1536.1	1548
m1 = 0.1402	1003.3	1000.12	996.189	1517.9	1537.3	1548.9
m1 = 0.1601	1004.18	1000.98	997.035	1520.9	1539.7	1550.6
m1 = 0.1715	1004.66	1001.46	997.488	1522.6	1541.1	1551.6
